Laboratory results: ChEMBL document CHEMBL4028801, “A multifactorial approach to hepatobiliary transporter assessment enables improved therapeutic compound development” (Toxicol Sci, 2013)

What was measured:
[1] = molecular target: ATP-binding cassette sub-family C member 3 (Homo sapiens, UniProt O15438); test: Inhibition of human MRP3 overexpressed in Sf9 insect cell membrane vesicles assessed as uptake of [3H]-estradiol-17beta-D-glucuronide in presence of ATP and GSH measured after 10 mins by membrane vesicle transport assay; format: ADME, cell-based
ATP-binding cassette sub-family C member 3, sequence (O15438 whole entry): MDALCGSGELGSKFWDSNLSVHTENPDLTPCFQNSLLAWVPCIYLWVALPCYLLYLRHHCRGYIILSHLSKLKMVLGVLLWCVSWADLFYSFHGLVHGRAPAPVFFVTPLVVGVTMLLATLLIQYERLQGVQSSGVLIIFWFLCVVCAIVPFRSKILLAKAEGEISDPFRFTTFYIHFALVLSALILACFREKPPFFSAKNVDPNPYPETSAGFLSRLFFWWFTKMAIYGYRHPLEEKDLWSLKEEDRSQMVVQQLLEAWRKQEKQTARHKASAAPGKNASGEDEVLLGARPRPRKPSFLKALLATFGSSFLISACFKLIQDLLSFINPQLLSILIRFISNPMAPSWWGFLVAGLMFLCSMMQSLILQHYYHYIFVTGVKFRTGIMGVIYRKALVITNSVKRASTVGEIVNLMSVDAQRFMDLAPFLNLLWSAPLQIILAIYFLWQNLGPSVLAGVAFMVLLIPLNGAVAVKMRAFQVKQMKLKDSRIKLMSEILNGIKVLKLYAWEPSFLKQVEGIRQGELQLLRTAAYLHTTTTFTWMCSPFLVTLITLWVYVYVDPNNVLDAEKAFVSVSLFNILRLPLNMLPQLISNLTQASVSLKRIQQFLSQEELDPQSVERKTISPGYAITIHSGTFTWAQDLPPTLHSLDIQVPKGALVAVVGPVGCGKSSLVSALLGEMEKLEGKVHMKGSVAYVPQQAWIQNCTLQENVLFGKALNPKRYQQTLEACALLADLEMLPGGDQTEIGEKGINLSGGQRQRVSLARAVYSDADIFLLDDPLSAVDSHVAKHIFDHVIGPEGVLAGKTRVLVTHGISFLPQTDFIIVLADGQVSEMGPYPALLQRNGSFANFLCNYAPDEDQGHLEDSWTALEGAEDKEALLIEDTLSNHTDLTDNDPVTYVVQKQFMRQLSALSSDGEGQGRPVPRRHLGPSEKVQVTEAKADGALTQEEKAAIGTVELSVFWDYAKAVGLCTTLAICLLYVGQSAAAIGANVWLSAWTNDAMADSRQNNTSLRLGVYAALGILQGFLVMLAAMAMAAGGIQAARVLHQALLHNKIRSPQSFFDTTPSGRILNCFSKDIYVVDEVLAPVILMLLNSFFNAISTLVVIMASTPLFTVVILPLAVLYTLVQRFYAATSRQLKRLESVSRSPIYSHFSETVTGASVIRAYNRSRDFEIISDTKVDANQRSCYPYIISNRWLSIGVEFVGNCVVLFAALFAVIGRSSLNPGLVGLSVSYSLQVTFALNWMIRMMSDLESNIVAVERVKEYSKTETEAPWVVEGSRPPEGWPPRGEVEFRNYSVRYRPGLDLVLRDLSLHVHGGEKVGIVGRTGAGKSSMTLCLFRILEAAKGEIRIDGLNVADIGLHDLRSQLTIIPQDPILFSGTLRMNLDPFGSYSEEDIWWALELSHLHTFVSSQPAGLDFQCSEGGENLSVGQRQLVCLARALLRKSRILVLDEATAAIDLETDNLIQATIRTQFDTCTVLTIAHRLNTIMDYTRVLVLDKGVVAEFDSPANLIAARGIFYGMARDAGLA

[2] = AUC in human at 5 to 20 mg, iv after 24 hrs; format: ADME, organism-based; settings: in vivo
Homo sapiens [3] = test: Drug concentration at steady state in human at 5 to 20 mg, iv after 24 hrs; format: ADME, organism-based; settings: in vivo
[4] = molecular target: T1, ATP-binding cassette sub-family C member 4 (Homo sapiens, UniProt O15439); test: Inhibition of human MRP4 overexpressed in Sf9 cell membrane vesicles assessed as uptake of [3H]-estradiol-17beta-D-glucuronide in presence of ATP and GSH measured after 20 mins by membrane vesicle transport assay; format: ADME, cell-based
T1 sequence (O15439 whole entry): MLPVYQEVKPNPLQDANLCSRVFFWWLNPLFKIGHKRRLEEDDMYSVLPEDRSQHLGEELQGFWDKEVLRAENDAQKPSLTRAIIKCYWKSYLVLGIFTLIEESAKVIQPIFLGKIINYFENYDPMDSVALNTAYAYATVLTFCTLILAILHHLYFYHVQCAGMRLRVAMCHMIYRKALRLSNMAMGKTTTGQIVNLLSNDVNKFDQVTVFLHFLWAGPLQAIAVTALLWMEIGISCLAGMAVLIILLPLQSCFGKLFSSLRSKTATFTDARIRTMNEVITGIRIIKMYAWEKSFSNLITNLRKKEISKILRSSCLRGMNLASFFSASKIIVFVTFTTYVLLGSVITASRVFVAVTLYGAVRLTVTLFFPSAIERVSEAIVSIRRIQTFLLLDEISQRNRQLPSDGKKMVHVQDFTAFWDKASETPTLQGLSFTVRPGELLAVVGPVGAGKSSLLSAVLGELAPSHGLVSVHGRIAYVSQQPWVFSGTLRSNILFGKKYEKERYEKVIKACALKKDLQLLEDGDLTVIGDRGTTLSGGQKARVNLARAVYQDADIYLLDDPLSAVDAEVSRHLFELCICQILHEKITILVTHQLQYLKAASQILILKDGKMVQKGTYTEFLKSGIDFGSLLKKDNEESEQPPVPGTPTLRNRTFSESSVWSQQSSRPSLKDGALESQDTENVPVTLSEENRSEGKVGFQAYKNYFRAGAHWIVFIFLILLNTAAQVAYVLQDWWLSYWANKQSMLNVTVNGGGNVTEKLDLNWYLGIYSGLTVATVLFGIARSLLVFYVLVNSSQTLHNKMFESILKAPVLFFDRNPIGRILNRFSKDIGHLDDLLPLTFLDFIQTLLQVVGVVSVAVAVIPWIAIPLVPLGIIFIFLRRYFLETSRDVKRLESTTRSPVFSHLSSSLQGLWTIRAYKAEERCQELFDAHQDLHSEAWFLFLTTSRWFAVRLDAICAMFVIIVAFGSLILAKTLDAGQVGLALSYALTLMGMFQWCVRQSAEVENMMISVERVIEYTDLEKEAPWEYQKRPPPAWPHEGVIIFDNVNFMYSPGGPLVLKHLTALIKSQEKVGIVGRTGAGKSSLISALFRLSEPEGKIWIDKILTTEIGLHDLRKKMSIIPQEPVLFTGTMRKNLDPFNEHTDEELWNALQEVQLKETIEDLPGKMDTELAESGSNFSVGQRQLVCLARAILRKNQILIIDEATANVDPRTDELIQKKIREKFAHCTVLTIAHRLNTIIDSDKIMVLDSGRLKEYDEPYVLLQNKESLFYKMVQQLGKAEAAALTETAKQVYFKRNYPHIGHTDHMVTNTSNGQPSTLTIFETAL

[5] = molecular target: ATP-binding cassette sub-family C member 2 (Homo sapiens, UniProt Q92887); test: Inhibition of human MRP2 overexpressed in Sf9 cell membrane vesicles assessed as uptake of [3H]-estradiol-17beta-D-glucuronide in presence of ATP and GSH measured after 20 mins by membrane vesicle transport assay
ATP-binding cassette sub-family C member 2, sequence (Q92887 whole entry): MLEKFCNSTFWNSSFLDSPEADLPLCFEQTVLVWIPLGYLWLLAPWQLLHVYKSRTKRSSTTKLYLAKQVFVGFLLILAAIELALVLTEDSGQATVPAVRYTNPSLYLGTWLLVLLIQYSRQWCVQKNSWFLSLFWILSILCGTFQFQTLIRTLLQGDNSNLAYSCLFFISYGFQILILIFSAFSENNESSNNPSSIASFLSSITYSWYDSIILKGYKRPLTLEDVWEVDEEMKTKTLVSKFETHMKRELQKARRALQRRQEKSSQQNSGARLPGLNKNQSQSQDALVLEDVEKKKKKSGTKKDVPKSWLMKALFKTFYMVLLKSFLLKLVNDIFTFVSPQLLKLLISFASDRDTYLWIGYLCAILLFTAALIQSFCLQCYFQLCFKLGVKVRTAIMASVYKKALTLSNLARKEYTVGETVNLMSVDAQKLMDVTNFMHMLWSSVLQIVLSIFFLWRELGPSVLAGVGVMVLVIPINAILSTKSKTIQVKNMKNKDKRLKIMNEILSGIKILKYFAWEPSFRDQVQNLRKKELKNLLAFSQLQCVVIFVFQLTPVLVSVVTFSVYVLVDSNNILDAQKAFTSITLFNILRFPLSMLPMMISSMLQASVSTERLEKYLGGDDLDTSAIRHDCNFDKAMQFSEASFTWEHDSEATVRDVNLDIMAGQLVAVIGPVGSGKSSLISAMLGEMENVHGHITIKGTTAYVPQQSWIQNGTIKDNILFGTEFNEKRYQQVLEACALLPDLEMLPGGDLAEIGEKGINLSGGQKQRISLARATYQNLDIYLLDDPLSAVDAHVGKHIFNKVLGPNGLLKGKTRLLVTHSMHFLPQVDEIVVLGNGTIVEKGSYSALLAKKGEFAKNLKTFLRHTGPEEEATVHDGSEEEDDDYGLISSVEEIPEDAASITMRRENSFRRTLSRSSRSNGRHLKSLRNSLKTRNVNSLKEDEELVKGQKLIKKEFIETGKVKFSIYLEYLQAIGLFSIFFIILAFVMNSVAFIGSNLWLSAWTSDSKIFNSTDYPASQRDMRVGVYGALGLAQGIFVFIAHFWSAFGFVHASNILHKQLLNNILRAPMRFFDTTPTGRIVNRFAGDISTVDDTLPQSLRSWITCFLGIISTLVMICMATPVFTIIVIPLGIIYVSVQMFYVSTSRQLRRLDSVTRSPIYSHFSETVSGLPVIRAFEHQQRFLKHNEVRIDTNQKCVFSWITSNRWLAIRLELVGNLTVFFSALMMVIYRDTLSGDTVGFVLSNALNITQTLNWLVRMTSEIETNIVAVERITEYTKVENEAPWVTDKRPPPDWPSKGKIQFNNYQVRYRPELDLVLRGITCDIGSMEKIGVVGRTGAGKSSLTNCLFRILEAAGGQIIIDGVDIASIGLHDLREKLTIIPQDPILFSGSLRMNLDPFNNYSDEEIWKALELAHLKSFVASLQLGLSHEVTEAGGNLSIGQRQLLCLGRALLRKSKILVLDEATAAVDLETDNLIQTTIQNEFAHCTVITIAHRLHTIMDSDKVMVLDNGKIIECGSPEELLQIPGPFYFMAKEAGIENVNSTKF

[6] = Ratio of drug concentration at steady state in human at 200 mg, po Q3h measured after 3 hrs to IC50 for human MRP3 overexpressed in Sf9 insect cells; format: ADME, organism-based; settings: in vivo
[7] = Ratio of drug concentration at steady state in human at 200 mg, po Q3h measured after 3 hrs to IC50 for human MRP4 overexpressed in Sf9 insect cells; format: ADME, organism-based; settings: in vivo
[8] = AUC in human at 200 mg, po Q3h measured after 3 hrs; format: ADME, organism-based; design: dose 200 mg, time < 3 hr, route oral; settings: in vivo
Bile salt export pump = Bile salt export pump (Homo sapiens, UniProt O95342); test: Inhibition of human BSEP overexpressed in Sf9 cell membrane vesicles assessed as uptake of [3H]-taurocholate in presence of ATP measured after 15 to 20 mins by membrane vesicle transport assay; format: ADME, cell-based
Bile salt export pump, sequence (O95342 whole entry): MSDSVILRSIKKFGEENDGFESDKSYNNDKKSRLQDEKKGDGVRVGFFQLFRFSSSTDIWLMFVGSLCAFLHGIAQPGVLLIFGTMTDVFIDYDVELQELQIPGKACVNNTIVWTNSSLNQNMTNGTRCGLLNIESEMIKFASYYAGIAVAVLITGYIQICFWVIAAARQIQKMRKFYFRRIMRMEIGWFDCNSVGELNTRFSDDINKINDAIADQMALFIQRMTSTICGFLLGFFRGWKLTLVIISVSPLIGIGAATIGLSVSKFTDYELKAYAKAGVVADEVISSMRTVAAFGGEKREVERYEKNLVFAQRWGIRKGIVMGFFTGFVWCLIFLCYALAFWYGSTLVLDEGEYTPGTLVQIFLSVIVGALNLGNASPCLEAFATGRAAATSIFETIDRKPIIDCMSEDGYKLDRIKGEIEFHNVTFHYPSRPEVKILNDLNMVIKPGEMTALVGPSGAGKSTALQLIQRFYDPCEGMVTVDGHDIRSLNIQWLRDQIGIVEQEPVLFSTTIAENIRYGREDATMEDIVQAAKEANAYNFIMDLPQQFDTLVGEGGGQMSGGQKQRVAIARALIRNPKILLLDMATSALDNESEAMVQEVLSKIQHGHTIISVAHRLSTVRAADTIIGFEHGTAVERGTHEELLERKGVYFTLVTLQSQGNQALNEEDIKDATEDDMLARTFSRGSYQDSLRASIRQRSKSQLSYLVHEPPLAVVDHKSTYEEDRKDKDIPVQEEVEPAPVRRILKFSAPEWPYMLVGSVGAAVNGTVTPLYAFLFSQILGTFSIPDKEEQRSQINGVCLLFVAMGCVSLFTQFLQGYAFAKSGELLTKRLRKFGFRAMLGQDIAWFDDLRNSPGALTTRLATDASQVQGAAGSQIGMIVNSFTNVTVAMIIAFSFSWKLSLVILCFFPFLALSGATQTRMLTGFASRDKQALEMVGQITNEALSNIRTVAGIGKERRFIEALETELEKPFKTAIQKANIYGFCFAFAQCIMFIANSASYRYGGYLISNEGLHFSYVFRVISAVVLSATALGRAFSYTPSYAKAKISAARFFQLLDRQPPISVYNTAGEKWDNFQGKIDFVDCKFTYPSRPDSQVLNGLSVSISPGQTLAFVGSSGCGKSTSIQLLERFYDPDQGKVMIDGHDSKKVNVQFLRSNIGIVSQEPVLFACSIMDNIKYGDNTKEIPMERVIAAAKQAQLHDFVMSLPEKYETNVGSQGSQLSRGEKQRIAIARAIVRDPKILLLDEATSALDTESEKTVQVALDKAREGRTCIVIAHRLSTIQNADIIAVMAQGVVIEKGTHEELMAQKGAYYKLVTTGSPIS

[9] = Drug concentration at steady state in human at 200 mg, po Q3h measured after 3 hrs; format: ADME, organism-based; settings: in vivo, read-out: Css
[10] = Ratio of drug concentration at steady state in human at 200 mg, po Q3h measured after 3 hrs to IC50 for human BSEP overexpressed in Sf9 insect cells; format: ADME, organism-based; settings: in vivo
[11] = AUC in human at 1200 mg administered orally BID up to 2800 mg/day after 12 hrs; format: ADME; design: time < 12 hr, dose 1200 mg, route oral; settings: in vivo, po
[12] = Drug concentration at steady state in human at 1200 mg administered orally BID up to 2800 mg/day after 12 hrs; format: ADME; settings: in vivo, po, read-out: Css
[13] = Ratio of drug concentration at steady state in human at 1200 mg administered orally BID up to 2800 mg/day after 12 hrs to IC50 for human BSEP overexpressed in Sf9 insect cells; format: ADME; settings: in vivo, po
[14] = Ratio of drug concentration at steady state in human at 0.5 to 2 mg/kg, po QD after 24 hrs to IC50 for human BSEP overexpressed in Sf9 insect cells; format: ADME, organism-based; settings: in vivo
[15] = AUC in human at 0.5 to 2 mg/kg, po QD after 24 hrs; format: ADME, organism-based; settings: in vivo
[16] = Drug concentration at steady state in human at 0.5 to 2 mg/kg, po QD after 24 hrs; format: ADME, organism-based; settings: in vivo, read-out: Css
[17] = Ratio of drug concentration at steady state in human at 62.5 to 125 mg, po BID after 12 hrs to IC50 for human MRP3 overexpressed in Sf9 insect cells; format: ADME, organism-based; settings: in vivo
[18] = Ratio of drug concentration at steady state in human at 62.5 to 125 mg, po BID after 12 hrs to IC50 for human BSEP overexpressed in Sf9 insect cells; format: ADME, organism-based; settings: in vivo
Homo sapiens [19] = test: Drug concentration at steady state in human at 62.5 to 125 mg, po BID after 12 hrs; format: ADME, organism-based; settings: in vivo
[20] = Ratio of drug concentration at steady state in human at 62.5 to 125 mg, po BID after 12 hrs to IC50 for human MRP4 overexpressed in Sf9 insect cells; format: ADME, organism-based; settings: in vivo
[21] = AUC in human at 62.5 to 125 mg, po BID after 12 hrs; format: ADME, organism-based; settings: in vivo
[22] = Ratio of drug concentration at steady state in human at 20 to 40 mg, po QD after 24 hrs to IC50 for human MRP3 overexpressed in Sf9 insect cells; format: ADME, organism-based; settings: in vivo
[23] = Ratio of drug concentration at steady state in human at 20 to 40 mg, po QD after 24 hrs to IC50 for human BSEP overexpressed in Sf9 insect cells; format: ADME, organism-based; settings: in vivo
[24] = Ratio of drug concentration at steady state in human at 20 to 40 mg, po QD after 24 hrs to IC50 for human MRP4 overexpressed in Sf9 insect cells; format: ADME, organism-based; settings: in vivo

CO[C@H]1C[C@@H]2CC[C@@H](C)[C@@](O)(O2)C(=O)C(=O)N2CCCC[C@H]2C(=O)O[C@H]([C@H](C)C[C@@H]2CC[C@@H](OC(=O)C(C)(CO)CO)[C@H](OC)C2)CC(=O)[C@H](C)/C=C(\C)[C@@H](O)[C@@H](OC)C(=O)[C@H](C)C[C@H](C)/C=C/C=C/C=C/1C [TEMSIROLIMUS]
IC50 [1]: 71.9 µM
AUC at 24 h [2]: 1.91 µM·h
Css (Homo sapiens [3]): 79 nM
IC50 [4]: 44 µM
IC50 [5]: 17.6 µM

CCN(CC)C(=O)/C(C#N)=C/c1cc(O)c(O)c([N+](=O)[O-])c1 [ENTACAPONE]
IC50 [1]: 35.1 µM
Ratio [6]: 0.05
Ratio [7]: 0.259
AUC at 3 h [8]: 5.29 µM·h
IC50 (Bile salt export pump): 55.6 µM
concentration at 3 h [9]: 1760 nM
Ratio [10]: 0.032
IC50 [4]: 6.8 µM
IC50 [5]: > 133 µM

CC(C)CN(C[C@@H](O)[C@H](Cc1ccccc1)NC(=O)O[C@H]1CCOC1)S(=O)(=O)c1ccc(N)cc1
IC50 [1]: > 133 µM
AUC at 12 h [11]: 52.2 µM·h
concentration at 12 h [12]: 4350 nM
IC50 (Bile salt export pump): 44.8 µM
Ratio [13]: 0.097
IC50 [4]: > 133 µM
IC50 [5]: > 133 µM

CC1=C(/C=C/C(C)=C/C=C/C(C)=C\C(=O)O)C(C)(C)CCC1 [ISOTRETINOIN]
IC50 [1]: > 133 µM
Ratio [14]: 0.037
AUC at 24 h [15]: 33.3 µM·h
concentration at 24 h [16]: 1390 nM
IC50 (Bile salt export pump): 37.1 µM
IC50 [4]: > 133 µM
IC50 [5]: > 133 µM

COc1ccccc1Oc1c(NS(=O)(=O)c2ccc(C(C)(C)C)cc2)nc(-c2ncccn2)nc1OCCO [BOSENTAN]
IC50 [1]: 42 µM
Ratio [17]: 0.032
Ratio [18]: 0.059
Css (Homo sapiens [19]): 1347 nM
IC50 (Bile salt export pump): 23 µM
IC50 [4]: 22 µM
Ratio [20]: 0.061
AUC at 12 h [21]: 16.2 µM·h

CCCc1nc(C(C)(C)O)c(C(=O)OCc2oc(=O)oc2C)n1Cc1ccc(-c2ccccc2-c2nnn[nH]2)cc1 [OLMESARTAN MEDOXOMIL]
IC50 [1]: 2 µM
Ratio [22]: 0.192
Ratio [23]: 0.081
Ratio [24]: 0.014
IC50 (Bile salt export pump): 4.73 µM
IC50 [4]: 28.5 µM
